These are literature values, as cited in paper PMC7180638, “Synthesis of Pyrrolidine Monocyclic Analogues of Pochonicine and Its Stereoisomers: Pursuit of Simplified Structures and Potent β-N-Acetylhexosaminidase Inhibition” (Molecules, 2020).

Like-named read-outs stand apart in the source and are kept apart here.

Broadly, the IC50 is the concentration needed to halve the response being measured.

Data set [1] has as its target β-N-Acetylhexosaminidase (Bovine liver). To be noted: ref [2]; cited from earlier work.
For data set [2], the target named is β-N-Acetylhexosaminidase (HL60). The conditions noted are these: ref [2]; cited from earlier work.
The target of data set [3] is β-N-Acetylhexosaminidase (Jack bean). To be noted: ref [2]; cited from earlier work.
For data set [4], the target named is β-N-Acetylgalactosaminidase (HL60). To be noted: ref [2]; cited from earlier work.
For data set [5], the target named is T1, α-N-Acetylgalactosaminidase (Chicken liver) (Gallus gallus, UniProt Q90744).
T1 construct: purchased Sigma-Aldrich Chemical Co; host or cells: chicken liver
T1 sequence (Q90744 1-405): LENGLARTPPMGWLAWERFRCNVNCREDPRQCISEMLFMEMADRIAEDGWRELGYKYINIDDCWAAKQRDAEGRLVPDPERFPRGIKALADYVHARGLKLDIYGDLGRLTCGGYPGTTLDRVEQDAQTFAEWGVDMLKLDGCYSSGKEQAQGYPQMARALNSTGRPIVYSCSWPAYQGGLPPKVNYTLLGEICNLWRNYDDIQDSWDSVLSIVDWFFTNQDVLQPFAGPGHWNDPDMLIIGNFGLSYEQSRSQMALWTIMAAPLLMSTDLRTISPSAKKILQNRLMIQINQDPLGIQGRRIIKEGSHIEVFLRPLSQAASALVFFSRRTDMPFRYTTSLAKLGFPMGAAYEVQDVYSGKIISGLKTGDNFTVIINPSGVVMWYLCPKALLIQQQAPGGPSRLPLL
The conditions noted are these: ref [2], cited from earlier work.

Data set [6] concerns the target β-N Acetylhexosaminidase (A. oryzae). To be noted: ref [2]; cited from earlier work.
Data set [7] has as its target β-N Acetylhexosaminidase (Human placenta). To be noted: ref [2]; cited from earlier work.

Turning to `CC(=O)NC[C@H]1[C@H](O)[C@H](O)[C@@H]2[C@H](O)C[C@@H](CO)N21` [Pochonicine (1), pochonicine], the IC50 was 21 nM in data set [1]; 18 nM in data set [2]; 1.6 nM in data set [3]; 49 nM in data set [4]; “did not exhibit any inhibition” in data set [5] (listed as pochonicine (1)); “NI (No Inhibition (less than 50% at 1000 μM))” in data set [5]. For the same compound, the IC50 in data set [6] was 330 nM; in data set [7], 12 nM. In addition, the “Inhibition % at 1000 μM” value in data set [5] (1000 μM) was 9.0%.
